Source: patent US20080280951A1, “Salt Il” (ASTRAZENECA AB, priority 2005, published 2008)
Like-named read-outs stand apart in the source and are kept apart here.

Columns and labels:
[1] = Estimated solubility of the salt in organic solvents; assay type: physicochemical; conditions: organic solvent or mixture
Method: (a) Form B was prepared by dissolving, in a vial, 20% w of a sample of the furoate salt prepared by the method of Example 1(b) (Form A) in a solvent such as ethanol (16 mg/ml) or 2-butanol (8 mg/ml). The figures in brackets indicate the estimated solubility of the salt in these solvents. The vial was then sealed and the suspension was homogenised at ambient temperature (20° C.) using a magnet. Stirring and temperature were maintained for a period of at least 7 days after which time a sample of the material obtained was dried and tested by XRPD. XRPD confirmed that there had been complete transformation of Form A to Form B.

[2] = Hygroscopicity determination (vapor sorption); assay type: physicochemical; conditions: room temperature (25° C.)
Method: Hygroscopicity Determination
The weight change of a test sample at room temperature (25° C.) and at 80% relative humidity (RH) was investigated by recording adsorption-desorption isotherms using a symmetric vapor-sorption analyser SGA-100 (VTI Corporation) using different methods, the main features being: a single sorption/desorption cycle from 0 to 90% RH in 10% RH steps with a dm/dt trigger value of 0.002%, (dm/dt=change in mass with time—when the balance stability is within this value the next step is automatically started, however, if those conditions are not achieved there is a default maximum time for each step of 6 hours). Approximately 2 to 10 mg of the test sample was placed in a sample holder and exposed to different relative humidities.

[3] = target: T1, human CCR1 (Homo sapiens, UniProt P32246); assay: Human CCR1 binding assay; conditions: HEK-CCR1 membranes, displacement of 33 pM [125I] MIP-1α
T1 construct: expressed in transfected cells; membrane preparation
T1 sequence (P32246 1-355): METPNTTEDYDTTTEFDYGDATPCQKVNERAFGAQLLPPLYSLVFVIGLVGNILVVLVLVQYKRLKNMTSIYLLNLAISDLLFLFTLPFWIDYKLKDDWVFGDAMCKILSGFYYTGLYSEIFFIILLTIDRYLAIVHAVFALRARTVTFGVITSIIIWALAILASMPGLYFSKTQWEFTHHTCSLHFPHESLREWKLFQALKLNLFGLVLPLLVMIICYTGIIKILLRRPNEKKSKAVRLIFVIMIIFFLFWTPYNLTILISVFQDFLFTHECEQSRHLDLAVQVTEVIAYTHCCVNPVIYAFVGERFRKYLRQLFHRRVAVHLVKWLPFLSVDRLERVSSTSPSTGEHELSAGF
Method: HEK293 cells, from ECACC, stably expressing recombinant human CCR1 (HEK-CCR1) were used to prepare cell membranes containing CCR1. The membranes were stored at −70° C. The concentration of membranes of each batch was adjusted to 10% specific binding of 33 pM [^125I] MIP-1α.
100 μL of HEK-CCR1 membranes diluted in assay buffer pH 7.4 (137 mM NaCl (Merck, Cat No 1.06404), 5.7 mM Glucose (Sigma, Cat No G5400), 2.7 mM KCl (Sigma, Cat No P-9333), 0.36 mM NaH2PO4×H2O (Merck, Cat No 1.06346), 10 mM HEPES (Sigma, Cat No H3375), 0.1% (w/v) Gelatine (Sigma, Cat No G2625)) with the addition of 17500 units/L Bacitracin (Sigma, Cat No B 1025) were added to each well of the 96 well filter plate (0.45 μm opaque Millipore cat no MHVB N4550). […] 12 μl assay buffer with 10% DMSO was added to certain wells (without compound) to detect maximal binding (B0).
12 μL [^125I] MIP-1α, diluted in assay buffer to a final concentration in the wells of 33 pM, was added to all wells. The plates with lid were then incubated for 1.5 hrs at room temperature. After incubation the wells were emptied by vacuum filtration (MultiScreen Resist Vacuum Manifold system, Millipore) and washed once with 200 μl assay buffer. After the wash, all wells received an addition of 50 μL of scintillation fluid (OptiPhase “Supermix”, Wallac Oy, Turko, Finland). Bound [^125I] MIP-1α was measured using a Wallac Trilux 1450 MicroBeta counter. […]

Row | Compound | solubility ([1]; solvent 2-butanol, read-out: estimated solubility of the salt in 2-butanol) | solubility ([1]; solvent ethanol, read-out: estimated solubility of the salt in ethanol) | Water Uptake (% w/w) at 80% RH [2] | IC50 [3]
1 | CC(=O)Nc1ccc(O)cc1OC[C@@](C)(O)CNC1CCN(Cc2ccc(Cl)cc2)CC1 [Form A, N-{2-[((2S)-3-{[1-(4-chlorobenzyl)piperidin-4-yl]amino}-2-hydroxy-2-methylpropyl)oxy]-4-hydroxyphenyl}acetamide furoate] | 8 mg/mL | 16 mg/mL | <0.8 % w/w | 
2 | CC(=O)Nc1ccc(O)cc1OC[C@@](C)(O)CNC1CCN(Cc2ccc(Cl)cc2)CC1 [N-{2-[((2S)-3-{[1-(4-chlorobenzyl)piperidin-4-yl]amino}-2-hydroxy-2-methylpropyl)oxy]-4-hydroxyphenyl}acetamide ditrifluoroacetate] |  |  |  | < 50 nM
